For 8 compounds, DC50 results are on record in patent US20240066131A1 (Protagonist Therapeutics, Inc., priority 2020, published 2024).

The test deals with T1, ferroportin (Homo sapiens, UniProt Q9NP59).
T1 sequence (Q9NP59 1-571): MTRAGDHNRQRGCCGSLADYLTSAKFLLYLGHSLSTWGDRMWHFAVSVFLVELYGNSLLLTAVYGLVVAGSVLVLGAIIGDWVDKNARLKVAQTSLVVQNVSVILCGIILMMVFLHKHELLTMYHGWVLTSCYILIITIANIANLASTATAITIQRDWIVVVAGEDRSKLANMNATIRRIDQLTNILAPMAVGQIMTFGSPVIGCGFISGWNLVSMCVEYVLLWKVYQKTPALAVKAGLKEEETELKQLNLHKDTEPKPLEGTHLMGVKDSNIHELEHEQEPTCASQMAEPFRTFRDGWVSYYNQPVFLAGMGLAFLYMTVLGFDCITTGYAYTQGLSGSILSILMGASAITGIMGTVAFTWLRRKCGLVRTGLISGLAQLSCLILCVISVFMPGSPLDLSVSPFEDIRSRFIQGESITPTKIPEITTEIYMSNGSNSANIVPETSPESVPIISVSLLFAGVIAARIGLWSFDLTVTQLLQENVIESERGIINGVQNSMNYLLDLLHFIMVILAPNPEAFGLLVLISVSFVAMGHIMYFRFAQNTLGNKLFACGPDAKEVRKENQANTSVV
Nature of the test: FPN activity assay: internalization/degradation of ferroportin-GFP in stably transfected HEK293 cells (loss of GFP fluorescence). Format: cell-based. The method, then:
Following internalization, the ferroporin protein is degraded.
A retro inverse peptide is a peptide with a reversed sequence in all D amino acids. An example is that Hy-Glu-Thr-His-NH2 becomes Hy-DHis-DThr-DGlu-NH2. The EC50 of these reference compounds for ferroportin internalization/degradation was determined according to the FPN activity assay described above. These peptides served as control standards.

Setting [1] is: ferroportin-GFP HEK293 cells, compound incubated at least 18 hours, read-out: FPN IC50.

Where two headings read alike, the source gives them in different places. Starred links: 1 amine or outer side, 2 acyl side, 3 side chain; linkers in the order of their positions; H or OH if unused. Non-standard residues stand in square brackets, D forms with d. Residues, ends and D or L forms follow the SMILES beside them. Groups on a side chain read outwards from the residue. *: point of attachment. X14 = O=C(CN(CCC(c1ccccc1)c1ccccc1)[*:1])[*:2]; C18 diacid = O=C(O)CCCCCCCCCCCCCCCCC(=O)*; X8 = O=C([C@H](CCc1nn[nH]n1)N[*:1])[*:2]; Dip = N[C@H](C(=O)O)C(c1ccccc1)c1ccccc1; γGlu = O=C(O)[C@H](CCC(=O)[*:2])N[*:1]; His(τ-Me) = Cn1cnc(C[C@H](N)C(=O)O)c1; Palmitoyl = CCCCCCCCCCCCCCCC(=O)*; Myristoyl = CCCCCCCCCCCCCC(=O)*; β3hF = N[C@H](CC(=O)O)Cc1ccccc1; Isovaleryl = CC(C)CC(=O)*; AEEA = NCCOCCOCC(=O)O; Ahx = NCCCCCC(=O)O; NHPr = CCCN*

Consider `CCCCCCCCCCCCCC(=O)NCCCCCC(=O)NCCCC[C@H](NC(=O)[C@@H](NC(=O)[C@H](C)NC(=O)[C@@H]1CCCN1C(=O)[C@H](Cc1ccccc1)NC(=O)[C@H](Cc1c[nH]cn1)NC(=O)[C@@H](NC(=O)[C@H](CCC(=O)O)NC(=O)CC(C)C)[C@@H](C)O)[C@@H](C)CC)C(=O)N[C@@H](Cc1ccccc1)C(=O)N[C@@H](CCC(=O)O)C(=O)N1CCC[C@H]1C(=O)N[C@@H](CCCNC(=N)N)C(=O)N[C@H](CO)C(N)=O` [compound 247] (Isovaleryl-ETHFPAIK([Ahx-Myristoyl])FEPR[dS]-NH2), for which the DC50 under setting [1] is 1160 nM.
With `CC(C)CC(=O)N[C@@H](CCC(=O)O)C(=O)N[C@H](C(=O)N[C@@H](Cc1c[nH]cn1)C(=O)N[C@H](C(=O)N1CCC[C@H]1C(=O)N[C@H](CCCCNC(=O)COCCOCCNC(=O)COCCOCCNC(=O)CCCCCNC(=O)CCCCCCCCCCCCCCCCC(=O)O)C(=O)N[C@H](CC(N)=O)Cc1ccccc1)C(c1ccccc1)c1ccccc1)[C@@H](C)O` [compound 214], the DC50 under setting [1] stood at 86.8 nM.
`CCCCCCCCCCCCCCCC(=O)NCCCCCC(=O)NCCCC[C@H](NC(=O)C[C@H](Cc1ccccc1)NC(=O)[C@@H](CCCCN)NC(=O)[C@@H](NC(=O)[C@H](CO)NC(=O)[C@@H]1CCCN1C(=O)[C@@H](NC(=O)[C@H](Cc1c[nH]cn1)NC(=O)[C@@H](NC(=O)[C@H](CCC(=O)O)NC(=O)CC(C)C)[C@@H](C)O)C(c1ccccc1)c1ccccc1)[C@@H](C)CC)C(N)=O` [compound 20] (Isovaleryl-ETH[Dip]PSI[dK][β3hF]K([Ahx-Palmitoyl])-NH2): the DC50 (Table 6A, read-out: FPN EC50) turned out to be 46.3 nM.
Same read-out and setting: the figure for `CC[C@H](C)[C@H](NC(=O)[C@H](C)NC(=O)[C@@H]1CCCN1C(=O)[C@@H](NC(=O)[C@H](Cc1cn(C)cn1)NC(=O)[C@@H](NC(=O)[C@H](CCc1nn[nH]n1)NC(=O)CC(C)C)[C@@H](C)O)C(c1ccccc1)c1ccccc1)C(=O)N[C@@H](CCCCNC(C)=O)C(=O)N[C@H](CC(=O)N[C@H](CCCCN)C(=O)N[C@@H](C)C(N)=O)Cc1ccccc1` [compound 40] (Isovaleryl-[X8]T[His(τ-Me)][Dip]PAIK(Ac)[β3hF][dK]A-NH2) is > 3000 nM; for `CC[C@H](C)[C@H](NC(=O)[C@H](C)NC(=O)[C@@H]1CCCN1C(=O)[C@@H](NC(=O)[C@H](Cc1cn(C)cn1)NC(=O)[C@@H](NC(=O)[C@H](CCc1nn[nH]n1)NC(=O)CC(C)C)[C@@H](C)O)C(c1ccccc1)c1ccccc1)C(=O)N[C@@H](CCCCNC(C)=O)C(=O)N[C@H](CC(=O)N[C@H](CCCCN)C(N)=O)Cc1ccccc1` [compound 41] (Isovaleryl-[X8]T[His(τ-Me)][Dip]PAIK(Ac)[β3hF][dK]-NH2) it is > 3000 nM.
In the case of `CCCNC(=O)[C@H](CCCCNC(=O)COCCOCCNC(=O)COCCOCCNC(=O)CC[C@H](NC(=O)CCCCCCCCCCCCCCCCC(=O)O)C(=O)O)NC(=O)[C@@H](NC(=O)[C@H](Cc1c[nH]cn1)NC(=O)[C@@H](NC(=O)[C@H](CC(C)C)NC(=O)CC(C)C)[C@@H](C)O)C(c1ccccc1)c1ccccc1` [compound 228] (Isovaleryl-LTH[Dip]K([AEEA-AEEA-γGlu-C18 diacid])-NHPr), under setting [1], the DC50 was > 3000 nM.
Take `CC[C@H](C)[C@H](NC(=O)[C@H](C)NC(=O)[C@@H]1CCCN1C(=O)[C@@H](NC(=O)[C@H](Cc1cn(C)cn1)NC(=O)[C@@H](NC(=O)[C@H](CCC(=O)O)NC(=O)CC(C)C)[C@@H](C)O)C(c1ccccc1)c1ccccc1)C(=O)N[C@@H](CCCCNC(C)=O)C(=O)N[C@H](CC(=O)N[C@H](CCCCN)C(=O)N[C@@H](C)C(N)=O)Cc1ccccc1` [compound 36] (Isovaleryl-ET[His(τ-Me)][Dip]PAIK(Ac)[β3hF][dK]A-NH2): for the setting “Table 6A, read-out: FPN EC50”, the DC50 was > 3000 nM.
Turning to `CCCCCCCCCCCCCCCC(=O)NCCCCCC(=O)NCCCC[C@H](NC(=O)[C@@H](NC(=O)[C@H](C)NC(=O)[C@@H]1CCCN1C(=O)CN(CCC(c1ccccc1)c1ccccc1)C(=O)[C@H](Cc1c[nH]cn1)NC(=O)[C@@H](NC(=O)[C@H](CCC(=O)O)NC(=O)CC(C)C)[C@@H](C)O)[C@@H](C)CC)C(=O)N[C@H](CC(N)=O)Cc1ccccc1` [compound 89] (Isovaleryl-ETH[X14]PAIK([Ahx-Palmitoyl])[β3hF]-NH2), the DC50 (read-out: FPN EC50, Table 6A) was > 3000 nM.
